These results are taken from patent US6402037B1, “Two-photon upconverting dyes and applications” (The Research Foundation of State University of New York, priority 1995, dated 2002).

The nature of series [1]: Two-photon pumped cavity lasing of APSS solution filled hollow fiber (800 nm pump). From the text: As a comparison, the absorption spectrum of 1 mm-path length pure solvent (DMSO) is also provided. There is a strong absorption band around 400 nm due to APSS dye, and the solution is transparent in the 570˜1100 nm spectral range. However, the two-photon energy of ˜800 nm IR radiation falls into the strong absorption band. Therefore, an effective TPA process is expected by ˜800 nm excitation. […] The same effect is expected with increased path length of the solution sample with a given concentration.
The input 800 nm pump IR laser beam was provided by a pulsed dye laser pumped with a Q-switched and frequency-doubled Nd: YAG laser source. The beam size, pulse duration, angular divergence, and repetition rate of the input pump laser radiation were ˜3 mm, ˜5 ns, ˜1 mrad, and 1-10 Hz, respectively. The pump beam was focused by a 4×-microscope objective into the input end of a 15-cm long hollow quartz fiber filled with APSS, prepared as described in Example 16, in DMSO (do=0.012 M). […] Under the excitation of the input 800 nm pump beam, a strong TPA induced green fluorescence emission was seen from the hollow fiber. […]
The spectral intensity distribution of two-photon pumped cavity lasing from the above system is shown in FIG. 16 (dashed curve) at a pump energy level of Eo=290 μJ. For comparison, the one photon (at 400 nm) induced fluorescence spectrum of the same dye solution with the same concentration is also shown in FIG. 16 (solid curve). The bandwidth of cavity lasing was much narrower than the bandwidth of corresponding one-photon induced fluorescence emission without using any intracavity dispersion element. […] Therefore, the blue-side and central range of the fluorescence band would be expected to be more difficult to lase.
The measured single-pulse waveform was recorded by using a fast photodiode detector in conjunction with a 350 MHz oscilloscope (Tektronix 2467 with C1001 video camera). […] At a pump level of ˜150 μJ, the measured one-pass two-photon absorption in the 15 cm-long dye solution filled hollow fiber sample was only about ˜25%. […]

The nature of series [2]: Energy transfer measurement (fluorescence of ASPS and TPPS in D2O). How it is done: An experiment based on the fluorescence emission of porphyrin and ASPS was conducted to show energy transfer from the dye to the porphyrin. D2O solutions of the ASPS and TPPS were mixed in different concentrations in a quartz cuvette and placed in the sample compartment of a spectrofluorophotometer. […] The beam energy used in this experiment was approximately 50 mJ in a beam having a 4 mm diameter. […] The porphyrin without the ASPS was also irradiated with the IR laser light to determine any possible contributions from the porphyrin due to two-photon excitation. […] ASPS and TPPS solutions were mixed together and a series of spectra were collected to determine dependence of fluorescence emission spectrum on the concentration of the different molecular species.

Series [3] is described as follows: Decomposition temperature (Td) by DSC thermogram. It is filed as physicochemical. As to conditions: DSC under nitrogen. How it is done:
Decomposition temperature (“Td”) of each dye was measured by differential scanning calorimetry (“DSC”) thermogram using a Shimadzu DSC-50GPC under nitrogen. Elemental: analysis were performed by Atlantic Microlab, Inc., P.O. Box 2288, Norcross, Ga. 30019. Proton NMR spectra, TV/visible absorption spectra, and UV/visible emission spectra were recorded using a Varian Gemini-300 300 MHz spectrometer, a Shimazdu UV-3101 PC spectrophotometer, and a Shimazdu RF5000U spectrofluorophotometer, respectively: TV/visible absorption spectra of dyes prepared in these Examples in DMF, are provided in FIG. 3.

With `CN(CCO)c1ccc(C=Cc2ccc(S(=O)(=O)CCCCCCO)cc2)cc1` [APSS], the “central wavelength of one-photon fluorescence band” value in series [1] (DMSO 0.012 M, 400 nm excitation) is about 520 nm. Also, in series [1] (DMSO solution, 1 mm path), the “strong linear absorption band” value is “around 400 nm” and the transparent spectral range is recorded as 570˜1100 nm.

As to `O=S(=O)(O)c1ccc(-c2c3nc(c(-c4ccc(S(=O)(=O)O)cc4)c4ccc([nH]4)c(-c4ccc(S(=O)(=O)O)cc4)c4nc(c(-c5ccc(S(=O)(=O)O)cc5)c5ccc2[nH]5)C=C4)C=C3)cc1` [TPPS, meso tetra(p-sulfonaphenyl)porphyrin], the “emission peak in mixture with ASPS” value in series [2] (1060 nm excitation) is 653 nm. In addition, the emission peak in series [2] (excited at 610 nm) came out at 650 nm.

Turning to “trans-4-[p-(-ethyl-N-hydroxyethylamino)styryl]-N-butansulfonpyridinum [dye4]”, in series [3], the “Decomposition temperature (Td)” value amounted to 241 °C. The “two-photon induced fluorescence emission peak” value in series [2] (1060 nm excitation) amounted to 610 nm.
